Where a name gives a salt, the structure may show the parent alone. Read-outs that look alike come from different tables or passages of the source.

These results are taken from patent US4333930A, “Orthoarylideneaminophenethylamines and pharmaceutical compositions” (priority 1980, dated 1982).

For data set [1], the system named is number of escapes the animal made in 5 minutes. In words: Escape test, Table 3. Type of data set: in vivo, mouse. An excerpt:
The products of the invention were always administered orally in 6% gum base.
The notation NS signifies that the difference between the results noted for the product and the results noted for the excipient alone is not significant at the threshold 0.05 according to the Student t Test.

A further data set has as its system phenylbenzoquinone (PBQ). Kind of data set: Analgesic activity using phenylbenzoquinone (PBQ) as noxious agent, Table 2. Format: in vivo, male Swiss mouse. To be noted: Mus musculus. The protocol: The analgesic activity was determined with the male Swiss mouse using phenylbenzoquinone (PBQ) (a variation of the method of Siegmund et al, Proc. Soc. Exp. Med., […], 95, 729-31) as the noxious agent. Twenty-eightminutes after having administered the test products in a suspension in a 6% gum base, the PBQ solution was injected. The mice were then observed ca. 5 mn. for the next five minutes.
% of analgesic activity as a function of
the dose expressed in mg/kg

A short description of data set [2]: Oral toxicity (mortality) in the mouse, Table 1. Type of data set: in vivo. To be noted: mouse, in vivo, po, Swiss mice, 14 days. The protocol:
The mortality percentages caused by the products of the present invention administered orally to Swiss mice are shown in Table 1. The animals, free of specific pathological organism were housed in an air conditioned room from 24 to 48 hours before the start of the experiments. They were divided up into lots of 5 males and 5 females. With the animals unfed for 24 hours, the substances were administered intragastrically in a base of 6% gum arabic in a volume equal to 0.1 ml for 10 g of animal weight. The mortality was recorded at 14 days.
% of mortality as a function of the dose

Data set [3] relates to ptosis induced by reserpine. In words: Antagonism of ptosis induced by reserpine, Table 6. Type of data set: in vivo. To be noted: read-out: % of inhibition of ptosis induced by reserpine. An excerpt:
(§1) The psychotropic profile of the present invention products has been characterized with the animals in numerous tests some of whose results are shown hereinafter. The products of the invention were always administered orally in 6% gum base.
(§2) Certain tests made it possible to show antidepressive activities. These are tests of antagonism to the effects of reserpine, oxotremorine (according to Everett G. M. et al, Science, 1956, 124, 79 and Levy J. et al, Therapie 1965, 20, 265) and to despair (according to Porsolt P. D. et al, Eur. J. Pharmacol., 1978, 47, 379-91).
% of inhibition of ptosis induced by reserpine
as a function of the dose administered orally

The test system of data set [4] is number of displacements of the animal. Kind of data set: Four plates test (anxiolytic activity), Table 5. Type of data set: in vivo. To be noted: oral, mouse.
Source text: as §1
A certain number of products manifest an anxiolytic activity evidenced in the test with the four plates with the mouse (Table 5).
% of increase in the number of displacements of the
animal as a function of the dose expressed in mg/kg

Data set [5] has as its system trembling induced by oxotremorine. Kind of data set: Antagonism of trembling induced by oxotremorine, Table 7. Type of data set: in vivo. To be noted: oral, read-out: % of inhibition of trembling induced by oxotremorine.
Source text: as §1, §2
% of inhibition of trembling induced by
oxotremorine as a function of the dose
administered expressed in mg/kg

The mark [6] stands for this setting: read-out: % of analgesic activity, 100 mg/kg, male Swiss mouse, PBQ.
Where [7] appears, read: read-out: % of analgesic activity, 200 mg/kg, male Swiss mouse, PBQ.
The mark [8] stands for this setting: 50 mg/kg, male Swiss mouse, PBQ, read-out: % of analgesic activity.
Setting [9] is: 100 mg/kg, male Swiss mouse, PBQ, read-out: % of analgesic activity.
Setting [10] is: 200 mg/kg, male Swiss mouse, PBQ, read-out: % of analgesic activity.
[11] abbreviates: read-out: % of analgesic activity, 50 mg/kg, male Swiss mouse, PBQ.
Where [12] appears, read: Mus musculus, po, 5 min, read-out: % of activity (variation of the number of escapes).
The mark [13] stands for this setting: 5 min, 50 mg/kg, oral, mouse, 5 minutes, read-out: % of activity (variation of the number of escapes).
Setting [14] is: 5 min, oral, mouse, 5 minutes, read-out: % of activity (variation of the number of escapes).

On to “2-(2-N,N-dimethylamino-1-methylethyl)-N-pyridylidene-3 aniline [COR 01 213]”, for which the “% of activity (variation of the number of escapes)” value in data set [1] (100 mg/kg, oral, mouse, 5 minutes) is recorded as -20%.

In the case of `CC(=O)Oc1ccccc1C(=O)O` [Acetylsalicyclic acid, reference compound], the inhibition in vivo at 100 mg/kg with phenylbenzoquinone (PBQ) (setting [6]) came out at 55%. Besides, the inhibition in vivo at 200 mg/kg in the data set on phenylbenzoquinone (PBQ) (setting [7]) came out at 61%.

Consider `CN(C)CCc1cc2c(cc1N=Cc1ccccc1C(=O)O)OCO2` [COR 01 142, N-6-(2-N,N-dimethylaminoethyl)-1,3-benzodioxol-5-yl-2-formimidoylbenzoic acid, internal salt], for which the inhibition in vivo at 50 mg/kg in the data set on phenylbenzoquinone (PBQ) (setting [8]) came to 22%. Also, the inhibition in vivo at 100 mg/kg with phenylbenzoquinone (PBQ) (setting [9]) came out at 20%. Further, in the data set on phenylbenzoquinone (PBQ) (setting [10]), the inhibition in vivo at 200 mg/kg turned out to be 10%. The mortality at 336 h was determined as 0% in data set [2] (1000 mg/kg) and 50% in data set [2] (2000 mg/kg).

In the case of `Cc1ccc(C=Nc2cc3c(cc2CCN(C)C)OCO3)s1` [COR 01 169], the inhibition in vivo at 50 mg/kg in the data set with phenylbenzoquinone (PBQ) (setting [11]) came out at 7%. Besides, in the data set on phenylbenzoquinone (PBQ) (setting [6]), the inhibition in vivo at 100 mg/kg amounted to 43%. Moreover, the mortality at 336 h in data set [2] (750 mg/kg) is 50%; in data set [2] (1000 mg/kg) it was 20%; in data set [2] (1500 mg/kg), 80%.

Take `C(=Nc1cc2c(cc1CCN1CCCCC1)OCO2)c1cccs1` [COR 01 175, 6-(2-N-piperidinoethyl) N-(thienylidene-2)-1,3-benzodioxole-5-ylamine]: in the data set on phenylbenzoquinone (PBQ) (setting [9]), the inhibition in vivo at 100 mg/kg was 13%. The inhibition in vivo at 200 mg/kg in the data set on phenylbenzoquinone (PBQ) (setting [10]) came out at 71%. Moreover, the mortality at 336 h came to 0% in data set [2] (250 mg/kg), 10% in data set [2] (500 mg/kg) and 10% in data set [2] (750 mg/kg).

For the molecule `CN(C)CCc1cc2c(cc1N=Cc1ccc(Br)s1)OCO2` [COR 01 181], the inhibition in vivo at 50 mg/kg with phenylbenzoquinone (PBQ) (setting [11]) is 25%. For the same molecule, the inhibition in vivo at 100 mg/kg in the data set on phenylbenzoquinone (PBQ) (setting [6]) was 42%. The mortality at 336 h in data set [2] (250 mg/kg) is 0%; in data set [2] (500 mg/kg), 30%.

Turning to `CN(C)CCc1ccccc1N=CC=Cc1ccccc1` [COR 01 185, N-cinnamylidene 2-(2-N,N,-dimethylaminoethyl)aniline], the mortality at 336 h in data set [2] (1500 mg/kg) is 0%; in data set [2] (2000 mg/kg) it was 100%.

Turning to `CC(C)(C)NCCc1cc2c(cc1N=Cc1cccnc1)OCO2` [COR 01 195], the change in vivo at 50 mg/kg was -22% in data set [3] (po) and 19% in data set [1] (setting [12]). The change in vivo at 100 mg/kg in data set [3] (po) was -22%; in data set [1] (setting [12]) it was 28%. In the data set on phenylbenzoquinone (PBQ) (setting [6]), the inhibition in vivo at 100 mg/kg was found to be 24%. For the same molecule, the inhibition in vivo at 200 mg/kg in the data set on phenylbenzoquinone (PBQ) (setting [7]) is 31%. Also, in data set [1] (setting [12]), the change in vivo at 3 mg/kg stood at 54%. Besides, in data set [1] (setting [12]), the change in vivo at 5 mg/kg was determined as 53%. Moreover, the mortality at 336 h in data set [2] (1000 mg/kg) came to 0%; in data set [2] (1500 mg/kg) it was 20%; in data set [2] (2000 mg/kg), 30%.

For `C(=Cc1ccccc1)C=Nc1cc2c(cc1CCN1CCCC1)OCO2` [COR 01 200], the change in vivo at 25 mg/kg in data set [3] (25 mg/kg, oral) was -28%. Also, the change in vivo at 100 mg/kg in data set [3] (100 mg/kg, oral) is -24%. Also, the “% of increase in the number of displacements of the animal” value is “+112%” in data set [4] (5 mg/kg); “+180%” in data set [4] (10 mg/kg); “+292%” in data set [4] (20 mg/kg); “+142%” in data set [4] (25 mg/kg); “+84%” in data set [4] (50 mg/kg). The change in vivo at 10 mg/kg in data set [1] (5 min, 10 mg/kg, oral, mouse, 5 minutes, read-out: % of activity (variation of the number of escapes)) came out at 25%. Also, the change in vivo at 50 mg/kg in data set [1] (setting [13]) turned out to be 38%. Further, the results for the mortality at 336 h in data set [2] (750 mg/kg), in data set [2] (1000 mg/kg) and in data set [2] (1500 mg/kg) were 0%, 10% and 70%, respectively.

For the molecule `C(=Nc1cc2c(cc1CCN1CCOCC1)OCO2)c1cccnc1` [COR 01 204], the inhibition in vivo at 50 mg/kg in the data set with phenylbenzoquinone (PBQ) (setting [8]) is 0%. Besides, in the data set with phenylbenzoquinone (PBQ) (setting [9]), the inhibition in vivo at 100 mg/kg was determined as 45%. In addition, in the data set with phenylbenzoquinone (PBQ) (setting [10]), the inhibition in vivo at 200 mg/kg amounted to 42%. In addition, the figures for the change in vivo at 50 mg/kg in data set [5] and in data set [1] (setting [13]) were -30% and -24%, respectively. Further, the change in vivo at 100 mg/kg in data set [5] is -20%; in data set [1] (5 min, 100 mg/kg, oral, mouse, 5 minutes, read-out: % of activity (variation of the number of escapes)) it was -15%. Further, the change in vivo at 200 mg/kg is -30% in data set [5] and -24% in data set [1] (setting [14]). Further, the change in vivo at 5 mg/kg in data set [1] (5 min, 5 mg/kg, oral, mouse, 5 minutes, read-out: % of activity (variation of the number of escapes)) is -28%. The change in vivo at 25 mg/kg in data set [1] (5 min, 25 mg/kg, oral, mouse, 5 minutes, read-out: % of activity (variation of the number of escapes)) was -31%. The change in vivo at 75 mg/kg in data set [1] (5 min, 75 mg/kg, oral, mouse, 5 minutes, read-out: % of activity (variation of the number of escapes)) is -20%. Besides, the mortality at 336 h in data set [2] (1500 mg/kg) came out at 0%; in data set [2] (2000 mg/kg) it was 10%.

For `CN1CCN(CCc2ccccc2N=Cc2cccnc2)CC1` [COR 01 205], the change in vivo at 50 mg/kg was -31% in data set [3] (50 mg/kg, oral) and -30% in data set [5]. The change in vivo at 100 mg/kg in data set [3] (100 mg/kg, oral) is -25%; in data set [5], -30%. The change in vivo at 200 mg/kg is -31% in data set [3] (200 mg/kg, oral); -40% in data set [5]; -34% in data set [1] (setting [14]). The inhibition in vivo at 100 mg/kg in the data set on phenylbenzoquinone (PBQ) (setting [9]) was 10%. Moreover, the inhibition in vivo at 200 mg/kg in the data set on phenylbenzoquinone (PBQ) (setting [10]) is 36%. In addition, the mortality at 336 h in data set [2] (1000 mg/kg) stood at 0%; in data set [2] (1500 mg/kg), 10%; in data set [2] (2000 mg/kg), 10%.

Take `CN(C)CCc1cc2c(cc1N=Cc1ccc(Cl)c(Cl)c1)OCO2` [COR 01 207]: the mortality at 336 h in data set [2] (750 mg/kg) was 0%; in data set [2] (1000 mg/kg) it was 20%; in data set [2] (1500 mg/kg) it was 20%; in data set [2] (2000 mg/kg), 40%.

Take `CN(C)CCc1cc2c(cc1N=Cc1ccc(Cl)cc1)OCO2` [COR 01 208]: the mortality at 336 h in data set [2] (500 mg/kg) was 0%; in data set [2] (750 mg/kg) it was 30%; in data set [2] (1000 mg/kg), 20%; in data set [2] (1500 mg/kg) it was 20%; in data set [2] (2000 mg/kg), 80%.

With `CC(Cc1ccccc1N=Cc1cccnc1)N(C)C` (stereo not drawn) [COR 01 214, 2-(2-N,N-dimethylamino-2-methylethyl)-N-pyridylidene-3 aniline], the inhibition in vivo at 100 mg/kg in the data set with phenylbenzoquinone (PBQ) (setting [6]) was 21%. Moreover, in the data set with phenylbenzoquinone (PBQ) (setting [7]), the inhibition in vivo at 200 mg/kg was 30%. Also, the mortality at 336 h came to 0% in data set [2] (1000 mg/kg), 30% in data set [2] (1500 mg/kg) and 70% in data set [2] (2000 mg/kg).
